These results are taken from US9376425B2, “Heterocyclic compounds as MDM2 inhibitors for the treatment of cancer” (AMGEN INC., priority 2011, dated 2016).

Some results are limits rather than exact numbers.

T1 sequence (Q00987 1-188): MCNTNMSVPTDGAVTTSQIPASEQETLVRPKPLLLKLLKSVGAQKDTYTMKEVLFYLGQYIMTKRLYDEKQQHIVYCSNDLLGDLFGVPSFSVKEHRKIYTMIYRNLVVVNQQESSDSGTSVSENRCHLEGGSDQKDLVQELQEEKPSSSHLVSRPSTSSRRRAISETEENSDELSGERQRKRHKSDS

This test has as its target T1, human MDM2 (GST-hMDM2 1-188), interaction with biotinylated-p53 (1-83) (Homo sapiens, UniProt Q00987).
T1 construct: Amino acid residues 1-188 of human MDM2 were expressed; made in house; host or cells: Escherichia coli
Briefly: improved HTRF assay (HTRF2 assay), inhibition of HDM2-p53 interaction. The class given is binding. As to conditions: 0.2 nM GST-hMDM2, 0.5 nM biotinylated-p53, 100 mM KF. In a few lines: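 GST-hMDM2 preincubated 20 min at RT with serially diluted compound, then biotinylated p53 (1-83, E. coli) added for 60 min. Detection with SA-XLent, anti-GST cryptate and KF, equilibrated >4 h; final DMSO 2%. TR-FRET read; % inhibition calculated relative to nutlin-3.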
In general terms: Time-resolved FRET reads energy transfer from a long-lived donor to a nearby acceptor.
Regarding `C[C@@H](CS(=O)(=O)C(C)(C)C)N1C(=O)[C@@H](CC(=O)NCCO)O[C@H](c2cccc(Cl)c2)[C@H]1c1ccc(Cl)cc1` (single isomer, unassigned) [Example 234, 2-((2R,5R,6R)-4-((S)-1-(tert-butylsulfonyl)propan-2-yl)-6-(3-chlorophenyl)-5-(4-chlorophenyl)-3-oxomorpholin-2-yl)-N-(2-hydroxyethyl)acetamide or 2-((2S,5R,6R)-4-((S)-1-(tert-butylsulfonyl)propan-2-yl)-6-(3-chlorophenyl)-5-(4-chlorophenyl)-3-oxomorpholin-2-yl)-N-(2-hydroxyethyl)acetamide], it took 15 nM to reach half-maximal inhibition (IC50).

As to `C[C@@H](CS(=O)(=O)C(C)(C)C)N1C(=O)[C@H](CC(=O)N2CCOCC2)O[C@H](c2cccc(Cl)c2)[C@H]1c1ccc(Cl)cc1` (single isomer, unassigned) [Example 235, (2S,5R,6R)-4-((S)-1-(tert-butylsulfonyl)propan-2-yl)-6-(3-chlorophenyl)-5-(4-chlorophenyl)-2-(2-morpholino-2-oxoethyl)morpholin-3-one or (2R,5R,6R)-4-((S)-1-(tert-butylsulfonyl)propan-2-yl)-6-(3-chlorophenyl)-5-(4-chlorophenyl)-2-(2-morpholino-2-oxoethyl)morpholin-3-one], the IC50 (in general, the midpoint of a concentration-inhibition curve) amounted to 11 nM.

Compound `C[C@@H](CS(=O)(=O)C(C)(C)C)N1C(=O)[C@@H](CC(=O)N2CCOCC2)O[C@H](c2cccc(Cl)c2)[C@H]1c1ccc(Cl)cc1` (single isomer, unassigned) [Example 236, (2R,5R,6R)-4-((S)-1-(tert-butylsulfonyl)propan-2-yl)-6-(3-chlorophenyl)-5-(4-chlorophenyl)-2-(2-morpholino-2-oxoethyl)morpholin-3-one or (2S,5R,6R)-4-((S)-1-(tert-butylsulfonyl)propan-2-yl)-6-(3-chlorophenyl)-5-(4-chlorophenyl)-2-(2-morpholino-2-oxoethyl)morpholin-3-one] gave an IC50 of 22 nM.

As to `C[C@@H](CS(=O)(=O)C(C)(C)C)N1C(=O)[C@H](CC(=O)NS(C)(=O)=O)O[C@H](c2cccc(Cl)c2)[C@H]1c1ccc(Cl)cc1` (single isomer, unassigned) [Example 237], inhibition was half-maximal at 3 nM (IC50). Compared with the last compound, the IC50 is about 7.3-fold lower.

In turn, `C[C@@H](CS(=O)(=O)C(C)(C)C)N1C(=O)[C@@H](CC(=O)NS(C)(=O)=O)O[C@H](c2cccc(Cl)c2)[C@H]1c1ccc(Cl)cc1` (single isomer, unassigned) [Example 238] showed an IC50 of 1 nM. Against the preceding compound, the IC50 is about 3-fold lower.

In turn, `CC[C@@H](CN(c1ccccc1F)S(=O)(=O)C1CC1)N1C(=O)[C@H](CC(=O)NS(C)(=O)=O)O[C@H](c2cccc(Cl)c2)[C@H]1c1ccc(Cl)cc1` (single isomer, unassigned) [Example 239, 2-((2S,5R,6R)-6-(3-chlorophenyl)-5-(4-chlorophenyl)-4-((S)-1-(N-(2-fluorophenyl)cyclopropanesulfonamido)butan-2-yl)-3-oxomorpholin-2-yl)-N-(methylsulfonyl)acetamide or 2-((2R,5R,6R)-6-(3-chlorophenyl)-5-(4-chlorophenyl)-4-((S)-1-(N-(2-fluorophenyl)cyclopropanesulfonamido)butan-2-yl)-3-oxomorpholin-2-yl)-N-(methylsulfonyl)acetamide] displayed an IC50 of less than 1 nM.

`CC[C@@H](CN(c1ccccc1F)S(=O)(=O)C1CC1)N1C(=O)[C@@H](CC(=O)NS(C)(=O)=O)O[C@H](c2cccc(Cl)c2)[C@H]1c1ccc(Cl)cc1` (single isomer, unassigned) [Example 240, 2-((2R,5R,6R)-6-(3-chlorophenyl)-5-(4-chlorophenyl)-4-((S)-1-(N-(2-fluorophenyl)cyclopropanesulfonamido)butan-2-yl)-3-oxomorpholin-2-yl)-N-(methylsulfonyl)acetamide or 2-((2S,5R,6R)-6-(3-chlorophenyl)-5-(4-chlorophenyl)-4-((S)-1-(N-(2-fluorophenyl)cyclopropanesulfonamido)butan-2-yl)-3-oxomorpholin-2-yl)-N-(methylsulfonyl)acetamide] had an IC50 of 11 nM. This lies in the double-digit nanomolar range.

`CC[C@@H](CN(c1ccccc1F)S(=O)(=O)C1CC1)N1C(=O)[C@H](CC(N)=O)O[C@H](c2cccc(Cl)c2)[C@H]1c1ccc(Cl)cc1` (single isomer, unassigned) [Example 241, 2-((2S,5R,6R)-6-(3-chlorophenyl)-5-(4-chlorophenyl)-4-((S)-1-(N-(2-fluorophenyl)cyclopropanesulfonamido)butan-2-yl)-3-oxomorpholin-2-yl)acetamide or 2-((2R,5R,6R)-6-(3-chlorophenyl)-5-(4-chlorophenyl)-4-((S)-1-(N-(2-fluorophenyl)cyclopropanesulfonamido)butan-2-yl)-3-oxomorpholin-2-yl)acetamide] yielded an IC50 of 1 nM. This IC50 lies about 11-fold lower than the previous one.

`CC[C@@H](CN(c1ccccc1F)S(=O)(=O)C1CC1)N1C(=O)[C@@H](CC(N)=O)O[C@H](c2cccc(Cl)c2)[C@H]1c1ccc(Cl)cc1` (single isomer, unassigned) [Example 242, 2-((2R,5R,6R)-6-(3-chlorophenyl)-5-(4-chlorophenyl)-4-((S)-1-(N-(2-fluorophenyl)cyclopropanesulfonamido)butan-2-yl)-3-oxomorpholin-2-yl)acetamide or 2-((2S,5R,6R)-6-(3-chlorophenyl)-5-(4-chlorophenyl)-4-((S)-1-(N-(2-fluorophenyl)cyclopropanesulfonamido)butan-2-yl)-3-oxomorpholin-2-yl)acetamide] gave a 50% inhibitory concentration (IC50) of 2 nM.

The compound `CC[C@@H](CN(C)S(=O)(=O)C1CC1)N1C(=O)[C@@H](Cc2nnn[nH]2)O[C@H](c2cccc(Cl)c2)[C@H]1c1ccc(Cl)cc1` (single isomer, unassigned) [Example 243, N-((S)-2-((2R,5R,6R)-2-((1H-tetrazol-5-yl)methyl)-6-(3-chlorophenyl)-5-(4-chlorophenyl)-3-oxomorpholino)butyl)-N-methylcyclopropanesulfonamide or N-((S)-2-((2S,5R,6R)-2-((1H-tetrazol-5-yl)methyl)-6-(3-chlorophenyl)-5-(4-chlorophenyl)-3-oxomorpholino)butyl)-N-methylcyclopropanesulfonamide] returned an IC50 of 1 nM.

In turn, `CC[C@@H](CN(C)S(=O)(=O)C1CC1)N1C(=O)[C@H](Cc2nnn[nH]2)O[C@H](c2cccc(Cl)c2)[C@H]1c1ccc(Cl)cc1` (single isomer, unassigned) [Example 244, N-((S)-2-((2S,5R,6R)-2-((1H-tetrazol-5-yl)methyl)-6-(3-chlorophenyl)-5-(4-chlorophenyl)-3-oxomorpholino)butyl)-N-methylcyclopropanesulfonamide or N-((S)-2-((2R,5R,6R)-2-((1H-tetrazol-5-yl)methyl)-6-(3-chlorophenyl)-5-(4-chlorophenyl)-3-oxomorpholino)butyl)-N-methylcyclopropanesulfonamide] returned an IC50 of 1 nM.

Consider `CC[C@@H](CS(=O)(=O)C(C)(C)C)N1C(=O)[C@@H](CC(=O)CO)O[C@H](c2cccc(Cl)c2)[C@H]1c1ccc(Cl)cc1` (single isomer, unassigned) [Example 245, (2R,5R,6R)-4-((S)-1-(tert-butylsulfonyl)butan-2-yl)-6-(3-chlorophenyl)-5-(4-chlorophenyl)-2-(3-hydroxy-2-oxopropyl)morpholin-3-one or (2S,5R,6R)-4-((S)-1-(tert-butylsulfonyl)butan-2-yl)-6-(3-chlorophenyl)-5-(4-chlorophenyl)-2-(3-hydroxy-2-oxopropyl)morpholin-3-one], for which the IC50 was found to be 9 nM.

In turn, `CC[C@@H](CS(=O)(=O)CCN(C)C)N1C(=O)[C@@H](CC(=O)O)O[C@H](c2cccc(Cl)c2)[C@H]1c1ccc(Cl)cc1` (single isomer, unassigned) [Example 247, 2-((2R,5R,6R)-6-(3-chlorophenyl)-5-(4-chlorophenyl)-4-((S)-1-((2-(dimethylamino)ethyl)sulfonyl)butan-2-yl)-3-oxomorpholin-2-yl)acetic acid or 2-((2S,5R,6R)-6-(3-chlorophenyl)-5-(4-chlorophenyl)-4-((S)-1-((2-(dimethylamino)ethyl)sulfonyl)butan-2-yl)-3-oxomorpholin-2-yl)acetic acid] displayed an IC50 of 3 nM.

`CC[C@@H](CS(=O)(=O)CCN(C)C)N1C(=O)[C@H](CC(=O)O)O[C@H](c2cccc(Cl)c2)[C@H]1c1ccc(Cl)cc1` (single isomer, unassigned) [Example 248, 2-((2S,5R,6R)-6-(3-chlorophenyl)-5-(4-chlorophenyl)-4-((S)-1-((2-(dimethylamino)ethyl)sulfonyl)butan-2-yl)-3-oxomorpholin-2-yl)acetic acid or 2-((2R,5R,6R)-6-(3-chlorophenyl)-5-(4-chlorophenyl)-4-((S)-1-((2-(dimethylamino)ethyl)sulfonyl)butan-2-yl)-3-oxomorpholin-2-yl)acetic acid]: the IC50 stood at 8 nM.

Consider `O=C(O)C[C@H]1OC(c2cccc(Cl)c2)C(c2ccc(Cl)cc2)N([C@H](CN(c2c(F)cccc2F)S(=O)(=O)C2CC2)C2CC2)C1=O` (single isomer, unassigned) [Example 250], for which the IC50 is less than 1 nM.

Turning to `O=C(O)C[C@H]1O[C@H](c2cccc(Cl)c2)[C@@H](c2ccc(Cl)cc2)N([C@H](CN(c2c(F)cccc2F)S(=O)(=O)C2CC2)C2CC2)C1=O` (single isomer, unassigned) [Example 251, 2-((2R,5R,6R)-6-(3-chlorophenyl)-5-(4-chlorophenyl)-4-((S)-1-cyclopropyl-2-(N-(2,6-difluorophenyl)cyclopropanesulfonamido)ethyl)-3-oxomorpholin-2-yl)acetic acid or 2-((2S,5R,6R)-6-(3-chlorophenyl)-5-(4-chlorophenyl)-4-((S)-1-cyclopropyl-2-(N-(2,6-difluorophenyl)cyclopropanesulfonamido)ethyl)-3-oxomorpholin-2-yl)acetic acid], the IC50 is less than 1 nM.

For the compound `CC[C@@H](CN(c1ccccc1F)S(=O)(=O)C1CC1)N1C(=O)[C@@H]([C@@H](C)C(=O)O)O[C@H](c2cccc(Cl)c2)[C@H]1c1ccc(Cl)cc1` (single isomer, unassigned) [Example 252], the IC50 amounted to 1 nM.
